Data reported in paper PMC11452715, “Pharmacokinetic and pharmacodynamic evaluation of various vasopressin doses and routes of administration in a neonatal piglet model” (Scientific Reports, 2024).

Columns and labels:
[1] = system: adults with out-of-hospital cardiac arrest; design: method as in PMID 14711909; settings: adults with asystolic arrest, cited from earlier work; for rate of survival to hospital admission: p = 0.02; for rate of survival to discharge: p = 0.04
From the text: (§1) Vasopressin, an antidiuretic hormone, might be an alternative to epinephrine, as its efficacy is not impaired during metabolic or respiratory acidosis[3],[4],[9].

[2] = system: patients < 18 years of age; design: method as in PMID 21926666; settings: vasopressin (0.8 IU/kg) after an initial epinephrine dose (n = 10) vs ≥ 2 doses of epinephrine; cited from earlier work
From the text: as §1

[3] = system: neonatal piglets; assay: Hemodynamic and cardiac function parameters after vasopressin administration in healthy neonatal piglets; format: in vivo, piglet; settings: for ejection fraction / cardiac output: one minute after drug administration, n = 5
From the text: Piglets were instrumented as previously described with modifications[15]–[17]. Following the induction of anaesthesia using isoflurane, piglets were intubated via a tracheostomy, and pressure-controlled ventilation (Sechrist Infant Ventilator Model IV-100; Sechrist Industries, Anaheim, California) was commenced at a respiratory rate of 16–20 breaths/min and pressure of 20/5 cmH2O. Oxygen saturation was kept within 90–100%, glucose level and hydration was maintained with an intravenous infusion of 5% dextrose at 10 mL/kg/hr. During the experiment anaesthesia was maintained with intravenous propofol 5–10 mg/kg/hr and morphine 0.1 mg/kg/hr. Additional doses of propofol (1–2 mg/kg) and morphine (0.05–0.1 mg/kg) were also given as needed. The piglet’s body temperature was maintained within a normal porcine temperature range of 38.5–39.5 °C using an overhead warmer and a heating pad.
A 5-French Argyle® (Klein-Baker Medical Inc. San Antonio, TX) double-lumen catheter was inserted via the right femoral vein for administration of fluids and medications. A 5-French Argyle® single-lumen catheter was inserted above the right renal artery via the femoral artery for continuous arterial blood pressure monitoring in addition to arterial blood gas measurements. The right common carotid artery was also exposed and encircled with a real-time ultrasonic flow probe (2 mm; Transonic Systems Inc., Ithica, NY) to measure cerebral blood flow[15]–[17]. A Millar® catheter (MPVS Ultra1, ADInstruments, Houston, TX) was inserted into the left ventricle via the left common carotid artery for continuous measurement of stroke volume, ejection fraction, end-diastolic and -systolic volumes, left ventricular pressure, and left ventricular contractile function (dp/dtmax, dp/dtmin)^19,20.
Piglets were placed in supine position and allowed to recover from surgical instrumentation until baseline hemodynamic measures were stable (minimum of one hour). Ventilator rate was adjusted to keep the partial arterial CO2 between 35 and 45 mmHg as determined by periodic arterial blood gas analysis. Mean systemic arterial pressure (MAP), systemic systolic arterial pressure, heart rate, and percutaneous oxygen saturation were continuously measured and recorded throughout the experiment with a Hewlett Packard 78833B monitor (Hewlett Packard Co., Palo Alto, CA)[15]–[17].
(§2) Piglets were randomized into four routes and various vasopressin doses: (1) IV vasopressin (0.4IU/kg; n = 5, control), (2) IO vasopressin (n = 5/dose; 0.2IU/kg, 0.4IU/kg, or 0.8IU/kg), (3) ETT vasopressin (n = 5/dose; 4IU/kg, 8IU/kg, or 16IU/kg), (4) IN vasopressin (n = 3/dose; 8IU/kg, 16IU/kg, or 32IU/kg). In all groups, a 3mL saline bolus was administered immediately after the vasopressin dose[20],[21].
(§3) Preliminary tests on a few piglets were conducted to determine the optimal ETT vasopressin doses. […] All piglets, regardless of randomization, underwent insertion of an intraosseous needle during surgical instrumentation to ensure each piglet underwent similar surgical procedures. Arterial blood was collected before vasopressin administration (baseline), 1, 2, 3, 4, 5, and 10 min after vasopressin administration. Following final collection of blood, piglets were euthanized with an intravenous overdose of sodium pentobarbital (100 mg/kg).
Demographics of study piglets were recorded. Transonic flow probes, heart rate, and pressure transducer outputs, and Millar catheter were digitized and recorded with LabChart® programming software (ADInstruments, Houston, TX). Blood samples were collected and centrifuged at 11,000 rpm for five minutes, plasma was then separated and stored at -80 °C. Concentrations of vasopressin were quantified using commercially available ELISA kits (K049-H1, Arbor Assays, Ann Arbor, Michigan, USA). Analysis of pharmacokinetic parameters was performed with the Non-Compartmental Analysis program of the SimBiology Model Analyzer app within MATLAB (MATLAB ver. R2023b, MathWorks, Natick, MA, USA). […]

[4] = Plasma vasopressin concentrations (ELISA) and non-compartmental pharmacokinetic analysis in neonatal piglets; format: in vivo, piglet; settings: for plasma vasopressin concentrations compared to IV vasopressin / plasma concentrations compared to IV vasopressin / Cmax: ELISA; for Tmax compared to IV vasopressin: p < 0.05; for Cmax: pig, plasma, mean (SD), SD
Experimental: as §2, §3
Demographics of study piglets were recorded. Transonic flow probes, heart rate, and pressure transducer outputs, and Millar catheter were digitized and recorded with LabChart® programming software (ADInstruments, Houston, TX). Blood samples were collected and centrifuged at 11,000 rpm for five minutes, plasma was then separated and stored at -80 °C. Concentrations of vasopressin were quantified using commercially available ELISA kits (K049-H1, Arbor Assays, Ann Arbor, Michigan, USA). Analysis of pharmacokinetic parameters was performed with the Non-Compartmental Analysis program of the SimBiology Model Analyzer app within MATLAB (MATLAB ver. R2023b, MathWorks, Natick, MA, USA).
The data was tested for normality (Shapiro-Wilk and Kolmogorov-Smirnov test) and compared using ANOVA for repeated measures using Tukey post-test for parametric and Dunn’s test for nonparametric comparisons of continuous variables, and Fisher’s exact test for categorical variables. The data are presented as mean (standard deviation - SD) for normally distributed continuous variables and median (interquartile range - IQR) when the distribution was skewed. P-values are 2-sided and p < 0.05 was considered statistically significant. Statistical analyses were performed with SigmaPlot (Systat Software Inc, San Jose, USA).

[5] = system: pediatric patients; settings: 0.4IU/kg/dose IV as rescue therapy; cited from earlier work
From the text: Vasopressin, an antidiuretic hormone, might be an alternative to epinephrine, as its efficacy is not impaired during metabolic or respiratory acidosis[3],[4],[9]. […] Similarly, in a case series of four pediatric patients’ vasopressin at 0.4IU/kg/dose IV administered as rescue thera ...

[6] = 0.8IU/kg IV vasopressin, four hours after resuscitation; cited from earlier work
From the text: This may result from the non-statistically significant lower baseline ejection fraction in 0.4IU/kg IO vasopressin piglets compared to 0.8IU/kg IO vasopressin piglets (Table 1).

[7] = 0.4IU/kg IO vasopressin, vs baseline
[8] = 0.4IU/kg IV vasopressin (control)

## CNC[C@H](O)c1ccc(O)c(O)c1 [epinephrine]
[1]
  rate of survival to hospital admission: 20%
  rate of survival to discharge: 2%
[2]
  24 h survival: 30%

## NC(=O)CC[C@@H]1NC(=O)[C@H](Cc2ccccc2)NC(=O)[C@H](Cc2ccc(O)cc2)NC(=O)[C@@H](N)CSSC[C@@H](C(=O)N2CCC[C@H]2C(=O)N[C@@H](CCCN=C(N)N)C(=O)NCC(N)=O)NC(=O)[C@H](CC(N)=O)NC1=O [vasopressin]
[3]; 0.2IU/kg IO vasopressin
  time after drug administration for which cardiac output significantly decreased: one
[3]; 0.2IU/kg IO vasopressin, for four minutes, vs 0.4IU/kg IV
  carotid blood flow compared to IV vasopressin: significantly higher
[3]; 0.2IU/kg IO vasopressin, vs baseline
  time for which MAP significantly increased: two minutes
[3]; 0.2IU/kg IO vasopressin, comparable to baseline from three to 10 min
  time post-drug administration for which carotid blood flow was decreased: two
[3]; 0.4IU/kg IO vasopressin
  time after drug administration for which cardiac output significantly decreased: two
[3]; 0.4IU/kg IO vasopressin, p = 0.042 vs IV
  ejection fraction: 8.4 (7.7–9.8) %
[3]; [7]
  time for which MAP significantly increased: five minutes
  time post-drug administration for which carotid blood flow significantly decreased: five
[3]; [8]
  cardiac output: 193.1 (170.3–365.8) mL/kg/min
  ejection fraction: 23.3 (22.5–32.6) %
[3]; 0.4IU/kg IV vasopressin, vs baseline
  time for which MAP significantly increased: five minutes
[3]; 0.4IU/kg IV vs 8, 16, 32IU/kg IN
  MAP and dP/dT minimum, IV vasopressin compared to all IN vasopressin doses: significantly higher
[3]; 0.8IU/kg IO vasopressin, vs baseline
  time for which MAP significantly increased: five minutes
[3]; 4IU/kg ETT vasopressin vs 0.4IU/kg IV
  dP/dT minimum compared to IV vasopressin: significantly lower
[3]; 4IU/kg ETT vasopressin, p = 0.045 vs IV
  cardiac output: 466 (394–558) mL/kg/min
[3]; 4IU/kg IN vasopressin, preliminary, doses then increased
  hemodynamic response: lack of hemodynamic response
[3]; 8, 16, 32IU/kg IN vs 0.4IU/kg IV
  carotid blood flow, IN vasopressin doses compared to IV vasopressin: higher
[3]; 16IU/kg ETT vasopressin vs 0.4IU/kg IV
  dP/dT minimum compared to IV vasopressin: significantly lower
[3]; any IO-administered vasopressin dose (0.2, 0.4, 0.8IU/kg)
  heart rate, dP/dT maximum or minimum compared to baseline values or IV vasopressin: no significant changes
[3]; any doses within the IN route (8, 16, 32IU/kg)
  changes from baseline in heart rate, carotid blood flow, cardiac output, ejection fraction, stroke volume, dP/dT maximum or minimum: no changes
[3]; any vasopressin dose administered endotracheally (4, 8, 16IU/kg)
  changes from baseline in heart rate, carotid blood flow, cardiac output, ejection fraction, stroke volume, dP/dT maximum or minimum: no changes from baseline
[4]; 4IU/kg ETT vasopressin, two minutes after drug administration
  plasma vasopressin concentrations compared to IV vasopressin: significantly lower
[4]; 8IU/kg ETT vasopressin, three minutes after drug administration
  plasma vasopressin concentrations compared to IV vasopressin: significantly lower
[4]; 8IU/kg IN vasopressin, 1-10 min
  plasma concentrations compared to IV vasopressin: significantly lower plasma concentrations at all measured time points
[4]; 16IU/kg ETT vasopressin, five minutes after drug administration
  plasma vasopressin concentrations compared to IV vasopressin: significantly lower
[4]; 16IU/kg IN vasopressin, 1-10 min
  plasma concentrations compared to IV vasopressin: significantly lower plasma concentrations at all measured time points
[4]; 32IU/kg IN vasopressin, 10-minutes after drug administration
  plasma concentrations compared to IV vasopressin: comparable
[4]; 32IU/kg IN vasopressin
  Tmax compared to IV vasopressin: significantly higher
[4]; all ETT vasopressin doses (4, 8, 16IU/kg)
  Tmax compared to IV vasopressin: significantly higher
[4]; any IO vasopressin dose (0.2, 0.4, or 0.8IU/kg) vs 0.4IU/kg IV
  plasma vasopressin concentrations compared to IV vasopressin: no differences
[4]; any IO vasopressin dose vs 0.4IU/kg IV
  pharmacokinetic parameters (Cmax, AUC, Tmax, clearance, half-life), IV vs IO: comparable
[4]; endotracheal, 4IU/kg ETT vasopressin, n = 5, p < 0.0001 vs IV
  Cmax: 0.958 ng/mL
[4]; inhaled or intranasal, 8IU/kg IN vasopressin, n = 3, p < 0.0001 vs IV
  Cmax: 0.384 ng/mL
[4]; inhaled or intranasal, 16IU/kg IN vasopressin, n = 3, p < 0.0001 vs IV
  Cmax: 0.399 ng/mL
[4]; 0.4IU/kg IV vasopressin (control), n = 5
  Cmax: 2.25 ng/mL
[1]
  rate of survival to hospital admission: 29%
  rate of survival to discharge: 5%
[5]
  achieved ROSC: 3/4
  survived > 24 h: 2/4
  survived to hospital discharge: 1/4
[2]
  24 h survival: 80%
[6]
  base excess and lactate concentrations compared to 0.4IU/kg IV vasopressin: significantly higher
